Data from ChEMBL document CHEMBL3286303, “Synthesis and in vitro antiproliferative evaluation of novel N-alkylated 6-isobutyl- and propyl pyrimidine derivatives” (Bioorg Med Chem Lett, 2014).

Assays:
[1] = tested on: MCF7; experiment: Antiproliferative activity against human MCF7 cells after 72 hrs by MTT assay; assay type: functional, cell-based; settings: MCF7, 72 h
[2] = tested on: SW-620; experiment: Antiproliferative activity against human SW620 cells after 72 hrs by MTT assay; assay type: functional, cell-based; settings: SW-620, 72 h
[3] = Antiproliferative activity against human MIAPaCa2 cells after 72 hrs by MTT assay; assay type: functional, cell-based; settings: MIA PaCa-2, 72 h
[4] = tested on: HeLa; experiment: Antiproliferative activity against human HeLa cells after 72 hrs by MTT assay; assay type: functional, cell-based
[5] = tested on: WI-38; experiment: Antiproliferative activity against human WI38 cells after 72 hrs by MTT assay; assay type: cell-based; settings: Homo sapiens, WI-38, 72 h
[6] = tested on: HepG2; experiment: Antiproliferative activity against human HepG2 cells after 72 hrs by MTT assay; assay type: functional, cell-based; settings: HepG2, 72 h
[7] = tested on: MCR; experiment: Antiproliferative activity against human MCR cells after 72 hrs by MTT assay
[8] = tested on: K562; experiment: Antiproliferative activity against apoptosis-resistant, Philadelphia chromosome-positive human K562 cells after 72 hrs by PrestoBlue colorimetric assay; assay type: functional, cell-based; settings: K562, 72 h
[9] = tested on: BJ; experiment: Antiproliferative activity against human BJ cells after 72 hrs by PrestoBlue colorimetric assay; assay type: cell-based
[10] = tested on: MCR; experiment: Antiproliferative activity against human MCR cells after 72 hrs by MTT assay; assay type: cell-based; settings: MCR

| Compound | IC50 [1] [µM] | IC50 [2] [µM] | IC50 [4] [µM] | IC50 [6] [µM] | IC50 [8] [µM] | IC50 [3] [µM] | IC50 [5] [µM] | IC50 [7] [µM] | IC50 [9] [µM] | IC50 [10] [µM] |
| --- | --- | --- | --- | --- | --- | --- | --- | --- | --- | --- |
| Cc1c(CC(O)COCc2ccccc2)n(COCC[Si](C)(C)C)c(=O)[nH]c1=O (stereo unspecified) | > 100 | > 100 | > 100 | > 100 |  | > 100 |  | > 100 |  |  |
| COCn1c(CC(O)CO)c(C)c(=O)[nH]c1=O (stereo unspecified) | > 100 | > 100 | > 100 | > 100 |  | > 100 |  | > 100 |  |  |
| Cc1cn(-c2cc(NC(=O)c3ccc(C)c(Nc4nccc(-c5cccnc5)n4)c3)cc(C(F)(F)F)c2)cn1 [NILOTINIB] |  |  |  |  | 2.4 |  |  |  | 12.8 |  |
| C[Si](C)(C)CCOCn1c(CC(O)CO)cc(=O)[nH]c1=O (stereo unspecified) | > 100 | > 100 | > 100 | > 100 |  | > 100 |  | > 100 |  |  |
| COCn1c(CC(O)COCc2ccccc2)c(C)c(=O)[nH]c1=O (stereo unspecified) | > 100 | > 100 | > 100 | > 100 |  | > 100 |  | > 100 |  |  |
| Cc1c(CC(O)COCc2ccccc2)[nH]c(=O)[nH]c1=O (stereo unspecified) | > 100 | > 100 | > 100 | > 100 |  | > 100 |  | > 100 |  |  |
| C[Si](C)(C)CCOCn1c(CC(O)(CO)CO)cc(=O)[nH]c1=O | > 100 | > 100 | > 100 | > 100 |  | > 100 |  | > 100 |  |  |
| O=c1cc(CC(O)COCc2ccccc2)[nH]c(=O)[nH]1 (stereo unspecified) | > 100 | > 100 | > 100 | > 100 |  | > 100 |  | > 100 |  |  |
| COc1nc(CC(O)(COCc2ccccc2)COCc2ccccc2)c(C)c(OC)n1 |  |  |  |  |  | 6.1 |  |  |  |  |
| COCn1c(CC(O)(CO)CO)cc(=O)[nH]c1=O | > 100 | > 100 | > 100 | > 100 |  | > 100 |  | > 100 |  |  |
| Cc1c(CC(O)CO)n(COCC[Si](C)(C)C)c(=O)[nH]c1=O (stereo unspecified) | > 100 | > 100 | > 100 | > 100 |  | > 100 |  | > 100 |  |  |

Further lines, with some results ahead:

| IC50 [1] [µM] | IC50 [2] [µM] | IC50 [4] [µM] | IC50 [6] [µM] | IC50 [8] [µM] | Compound | IC50 [3] [µM] | IC50 [5] [µM] | IC50 [7] [µM] | IC50 [9] [µM] | IC50 [10] [µM] |
| --- | --- | --- | --- | --- | --- | --- | --- | --- | --- | --- |
| 21.6 | 25.6 | 17 |  |  | COCn1c(=O)[nH]c(CC(COCc2ccccc2)COCc2ccccc2)c(C)c1=O | 27.3 | 19.4 |  |  |  |
| > 100 | > 100 | > 100 | > 100 |  | O=c1cc(CC(COCc2ccccc2)COCc2ccccc2)[nH]c(=O)[nH]1 | > 100 |  | > 100 |  |  |
| > 100 | > 100 | > 100 | > 100 |  | C[Si](C)(C)CCOCn1c(CC(O)COCc2ccccc2)cc(=O)[nH]c1=O (stereo unspecified) | > 100 |  | > 100 |  |  |
| 72.6 | 72.1 | 29.7 |  |  | COCn1c(CC(COCc2ccccc2)COCc2ccccc2)c(C)c(=O)[nH]c1=O | 55.9 | 30.8 |  |  |  |
| > 100 | > 100 | > 100 | > 100 |  | C[Si](C)(C)CCOCn1c(CC(O)(COCc2ccccc2)COCc2ccccc2)cc(=O)[nH]c1=O | > 100 |  | > 100 |  |  |
| > 100 | > 100 | > 100 | > 100 |  | COCn1c(CC(O)(COCc2ccccc2)COCc2ccccc2)cc(=O)[nH]c1=O | > 100 |  | > 100 |  |  |
| > 100 | > 100 | > 100 | > 100 |  | COc1nc(CC(O)COCc2ccccc2)c(C)c(OC)n1 (stereo unspecified) | > 100 |  |  |  | > 100 |
| > 100 | > 100 | > 100 | > 100 |  | O=c1cc(CC(O)(COCc2ccccc2)COCc2ccccc2)[nH]c(=O)[nH]1 | > 100 |  | > 100 |  |  |
| 0.3 | > 100 | 3.5 | 0.3 |  | COc1cc(CC(COCc2ccccc2)COCc2ccccc2)nc(OC)n1 |  |  | 18.5 |  |  |
| > 100 | > 100 | > 100 | > 100 |  | COCn1c(CC(COCc2ccccc2)COCc2ccccc2)cc(=O)[nH]c1=O | > 100 |  | > 100 |  |  |
| > 100 | > 100 | > 100 | > 100 |  | COc1cc(CC(O)(COCc2ccccc2)COCc2ccccc2)nc(OC)n1 | > 100 |  | > 100 |  |  |
| > 100 | > 100 | > 100 | > 100 |  | COc1cc(CC(O)COCc2ccccc2)nc(OC)n1 (stereo unspecified) | > 100 |  | > 100 |  |  |
